Here are results for three compounds from patent US4511565A, “7α-Acylthio-1α,2α-methylene- 3-oxo-17α-pregn-4-ene-21,17-carbolactones, their production and pharmaceutical preparations containing them” (Schering Aktiengesellschaft, priority 1982, dated 1985).

“Also recorded” adds a separate entry of the source.

In one series the test system is male patients. The following applies: extended treatment of male patients; traced to antiandrogenic side effect; cited from earlier work.
The test system of the next series is women. The following applies: ascribed to the gestagenic side effect; cited from earlier work.
In another series the test system is aldosterone. In words: antialdosterone effect in the experimental model by Hollmann. It is filed as in vivo. The following applies: spironolactone=1. From the text: The new compounds of Formula I have the properties of neutralizing or reversing the effect of aldosterone or deoxycorticosterone on the elimination of sodium and potassium. The compounds according to this invention are thus suited for the treatment of certain forms of hypertension, e.g., those treatable by spironolactone, edemas, primary aldosteronism, and other endocrine disturbances caused by aldosterone. They can also be used as diuretics.

Regarding `CC(=O)S[C@@H]1CC2=CC(=O)CC[C@]2(C)[C@H]2CC[C@@]3(C)[C@@H](CC[C@@]34CCC(=O)O4)[C@H]12` [Spironolactone, spironolactone], the “undesirable endocrine side effects in men” value with male patients is “gynecomastia; also recorded: impotence”. Also, the “side effects on women” value in the series on women is listed as “amenorrhea; also recorded: menstrual irregularities”.

For the compound `CC(=O)S[C@@H]1CC2=CC(=O)[C@@H]3C[C@@H]3[C@]2(C)[C@H]2CC[C@@]3(C)[C@@H]([C@@H]4C[C@@H]4[C@@]34CCC(=O)O4)[C@H]12` [B, 7α-acetylthio-1α,2α;15β,16β-dimethylene-3-oxo-17α-pregn-4-ene-21,17-carbolactone], in the series on aldosterone, the Relative antialdosterone effect is given as 2-3.

On to `CC(=O)S[C@@H]1CC2=CC(=O)[C@@H]3C[C@@H]3[C@]2(C)[C@H]2CC[C@@]3(C)[C@@H]([C@H]4C[C@H]4[C@@]34CCC(=O)O4)[C@H]12` [C, 7α-acetylthio-1α,2α;15α,16α-dimethylene-3-oxo-17α-pregn-4-ene-21,17-carbolactone], for which, in the series with aldosterone, the Relative antialdosterone effect was 3-4.
